What all share (test): CellTiter-Glo in vitro cell proliferation assay, Example 8
In general terms: Cellular ATP, detected with luciferase, serves as a proxy for viable cell number.

One test has as its system A2780 cells. Type of test: cell-based, Human. As to conditions: Homo sapiens; A2780, Ovarian, 72 hours; read-out: Mean IC50. Summed up:
(§1)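 24 h pre-incubation of plated cells at 37 °C; compound 0.0075–100 μM in DMSO; 72 h exposure at 37 °C; CellTiter-Glo, 60 min RT; luminescence read. Vehicle controls: DMSO alone.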

Another test has as its system A2780CP cells. Type of test: cell-based, Human. The note with it: Homo sapiens, A2780C/P, Ovarian, 72 hours, read-out: Mean IC50. The procedure, abridged:
as §1

The test system of a further test is A498 cells. Format: cell-based, Human. The note with it: Homo sapiens; A498, Renal, 72 hours; read-out: Mean IC50. Summed up:
as §1

The test system of the next test is ASPC-1 cells. Format: cell-based, Human. The note with it: Homo sapiens, ASPC1; ASPC-1, Pancreatic, 72 hours; read-out: Mean IC50. The procedure, abridged:
as §1

The subject of another test is DOHH-2 cells. Type of test: cell-based, Human. The note with it: Homo sapiens; DOHH-2, Diffuse Large B-Cell Lymphoma, 72 hours; read-out: Mean IC50. Summed up: as §1
In the next test the test system is H1650 (EGFR mut) cells. Format: cell-based, Human. The note with it: Homo sapiens, NCI-H1650, Non Small Cell Lung, 72 hours, read-out: Mean IC50. The procedure, abridged:
as §1

Another test relates to H1975 (EGFR mut) cells. Format: cell-based, Human. The note with it: Homo sapiens, NCI-H1975, Non Small Cell Lung, 72 hours, read-out: Mean IC50. Summed up: as §1
A further test concerns H929 cells. Type of test: cell-based, Human. As to conditions: NCI-H929; H929, Human Myeloma, 72 hours; read-out: Mean IC50. Summed up: as §1
The next test deals with HCC70 cells. Format: cell-based, Human. As to conditions: Homo sapiens; HCC70, Triple Negative Breast, 72 hours; read-out: Mean IC50. The procedure, abridged: as §1
Another test has as its system HEC-1a cells. Type of test: cell-based, Human. As to conditions: Homo sapiens, Endometrial, 72 hours, read-out: Mean IC50. The procedure, abridged:
as §1

For another test, the system named is JIM1 cells. Type of test: cell-based, Human. The note with it: JIM1, Human Myeloma, 72 hours; read-out: Mean IC50. The procedure, abridged: as §1
Another test concerns KHM-1B cells. Type of test: cell-based, Human. As to conditions: Human Myeloma, 72 hours, read-out: Mean IC50. Summed up: as §1
Another test deals with KMM-1 cells. Type of test: cell-based, Human. The note with it: KMM-1, Human Myeloma, 72 hours; read-out: Mean IC50. The procedure, abridged:
as §1

The next test has as its system KMS-11 cells. Type of test: cell-based, Human. As to conditions: KMS-11, Human Myeloma, 72 hours; read-out: Mean IC50. The procedure, abridged:
as §1

The next test concerns L363 cells. Type of test: cell-based, Human. As to conditions: L-363; L363, Human Myeloma, 72 hours; read-out: Mean IC50. Summed up:
as §1

The next test relates to MDA-MB-231 cells. Format: cell-based, Human. The note with it: Homo sapiens; MDA-MB-231, Triple Negative Breast, 72 hours; read-out: Mean IC50. The procedure, abridged:
as §1

A further test has as its system MDA-MB-468 cells. Format: cell-based, Human. As to conditions: Homo sapiens; MDA-MB-468, Triple Negative Breast, 72 hours; read-out: Mean IC50. Summed up:
as §1

The test system of another test is MM.1s cells. Type of test: cell-based, Human. The note with it: MM1.S; MM.IS, Human Myeloma, 72 hours; read-out: Mean IC50. Summed up: as §1
Another test deals with OCI-LY3 cells. Type of test: cell-based, Human. The note with it: Homo sapiens; OCI-LY3, Diffuse Large B-Cell Lymphoma, 72 hours; read-out: Mean IC50. Summed up:
as §1

The test system of a further test is SiHA cells. Format: cell-based, Human. As to conditions: Homo sapiens, Squamous, 72 hours, read-out: Mean IC50. Summed up:
as §1

Another test concerns N87 cells. Type of test: cell-based. The note with it: Homo sapiens; N87, Gastric, 72 hours; read-out: Mean IC50. As for the experimental part:
(§2) In this Example, in vitro cell proliferation assays were performed using: (1) Human Myeloma tumor cell lines; (2) Human Lymphoma tumor cell lines; (3) Solid Human tumor cell lines; and (4) Parental, Lenalidomide resistant and Bortezomib resistant Jeko-1 Mantle cell Lymphoma tumor cell lines. The compounds tested were three diharmaline compounds, namely the 518B562 (or simply 562), 560, and 561 compounds. In addition, a monoharmaline product designated as 518F014 was also tested. This monoharmaline product had the following structure:
(§3) Each proliferation assay was carried out as follows. The test cells were plated in growth media using a 384-well microtiter plate at 50 μL volume. The cells were incubated for 24 hours at 37° C. in a humidified incubator. After 24 hours of incubation, the test compounds were added to the test wells in DSMO solvent, at concentrations ranging from 0.0075-100 μM. Control wells received equal volumes of DSMO, without compound. Following drugging, the cells were incubated for 72 hours at 37° C. in a humidified incubator. After this exposure, 100 μL of a 1:1 mixture of sterile water and CellTiter-Glo® reagent (Promega) was added to each well. The plates were then incubated for 60 minutes at room temperature, followed by recording the luminescence value of each well using a luminometer as a measure of cell proliferation.

The next test has as its system RXF-393 cells. Format: cell-based. As to conditions: Homo sapiens; RXF-393, Renal, 72 hours; read-out: Mean IC50. The protocol:
as §2, §3

In a further test the test system is SU-DHL-4 cells. Format: cell-based. The note with it: Homo sapiens; SU-DHL-4, Diffuse Large B-Cell Lymphoma, 72 hours; read-out: Mean IC50. The protocol: as §2, §3
The next test concerns SU-DHL-6 cells. Format: cell-based. The note with it: Homo sapiens; SU-DHL-6, Diffuse Large B-Cell Lymphoma, 72 hours; read-out: Mean IC50. The protocol:
as §2, §3

`COc1ccc2c3c([nH]c2c1)C(CC(CC1=NCCc2c1[nH]c1cc(OC)ccc21)c1ccccc1)=NCC3` [compound 560]: the IC50 is 2.03 µM in the test with A2780 cells; 4.4 µM in the test on A2780CP cells; 3.34 µM in the test with A498 cells; 3.62 µM with ASPC-1 cells; 6.39 µM in the test with DOHH-2 cells; 2.95 µM in the test with H1650 (EGFR mut) cells. Besides, the IC50 in the test on H1975 (EGFR mut) cells came to 4.27 µM; with H929 cells, 4.3 µM; in the test with HCC70 cells, 5.94 µM; in the test on HEC-1a cells, 5.1 µM; in the test with JIM1 cells it was 5.17 µM; in the test on KHM-1B cells, 7.58 µM. The IC50 in the test on KMM-1 cells worked out at 5.3 µM; in the test on KMS-11 cells it was 4.95 µM; with L363 cells, 5.27 µM; in the test with MDA-MB-231 cells it was 3.89 µM; in the test on MDA-MB-468 cells, 3.75 µM; in the test with MM.1s cells, 2.26 µM. For the same molecule, the IC50 in the test on OCI-LY3 cells turned out to be 2.87 µM; in the test on SiHA cells, 11.6 µM; in the test with N87 cells it was 3.71 µM; in the test with RXF-393 cells, 5.4 µM; in the test with SU-DHL-4 cells, 3.68 µM; in the test with SU-DHL-6 cells, 3.52 µM.
In the case of `COc1ccc2c3c([nH]c2c1)C(CC(CC1=NCCc2c1[nH]c1cc(OC)ccc21)c1ccc(O)c(OC)c1)=NCC3` [compound 562], the IC50 with A2780 cells worked out at 1.14 µM; in the test on A2780CP cells it was 2.28 µM; with A498 cells, 1.76 µM; in the test with ASPC-1 cells it was 2.15 µM; in the test on DOHH-2 cells it was 2.42 µM; with H1650 (EGFR mut) cells, 2.3 µM. The half-maximal inhibitory concentration (IC50) with H1975 (EGFR mut) cells came to 1.84 µM; with H929 cells, 4.5 µM; in the test on HCC70 cells, 3.45 µM; in the test with HEC-1a cells, 4.75 µM; with JIM1 cells, 3.95 µM; in the test with KHM-1B cells it was 3.37 µM. Besides, the IC50 is 4.04 µM with KMM-1 cells; 4.93 µM with KMS-11 cells; 2 µM in the test with L363 cells; 1.62 µM in the test with MDA-MB-231 cells; 2.05 µM in the test with MDA-MB-468 cells; 1.67 µM in the test with MM.1s cells. For the same molecule, the IC50 with OCI-LY3 cells was found to be 2.38 µM; in the test with SiHA cells, 5.13 µM; in the test with N87 cells, 1.85 µM; with RXF-393 cells, 1.79 µM; in the test with SU-DHL-4 cells, 1.81 µM; in the test with SU-DHL-6 cells, 0.819 µM.

As a reminder, the IC50 is the concentration at which inhibition is half-maximal.

These data come from patent publication US12129265B2, “Therapeutic agents and uses thereof” (Ankh Life Sciences Limited, priority 2020, dated 2024).
